Reference: article PMC5064002, “Sintokamide A Is a Novel Antagonist of Androgen Receptor That Uniquely Binds Activation Function-1 in Its Amino-terminal Domain” (The Journal of Biological Chemistry, 2016)
Several values for one entry are separate records, joined by “and”; a condition that tells them apart may be missing. Identical values can stand only once. Like-named read-outs stand apart in the source and are kept apart here.

Assays:
PC3 cells = test system: PC3 cells; parameters: method as in PMID 18834139; conditions: cited from earlier work
AR-YFP = target: T1, AR-YFP (Homo sapiens, UniProt P10275); assay: AR nuclear translocation (AR-YFP) in LNCaP cells; format: cell-based; conditions: 10 μM compound
T1 construct: expressed in transfected cells; host or cells: LNCaP
T1 sequence (P10275 1-920): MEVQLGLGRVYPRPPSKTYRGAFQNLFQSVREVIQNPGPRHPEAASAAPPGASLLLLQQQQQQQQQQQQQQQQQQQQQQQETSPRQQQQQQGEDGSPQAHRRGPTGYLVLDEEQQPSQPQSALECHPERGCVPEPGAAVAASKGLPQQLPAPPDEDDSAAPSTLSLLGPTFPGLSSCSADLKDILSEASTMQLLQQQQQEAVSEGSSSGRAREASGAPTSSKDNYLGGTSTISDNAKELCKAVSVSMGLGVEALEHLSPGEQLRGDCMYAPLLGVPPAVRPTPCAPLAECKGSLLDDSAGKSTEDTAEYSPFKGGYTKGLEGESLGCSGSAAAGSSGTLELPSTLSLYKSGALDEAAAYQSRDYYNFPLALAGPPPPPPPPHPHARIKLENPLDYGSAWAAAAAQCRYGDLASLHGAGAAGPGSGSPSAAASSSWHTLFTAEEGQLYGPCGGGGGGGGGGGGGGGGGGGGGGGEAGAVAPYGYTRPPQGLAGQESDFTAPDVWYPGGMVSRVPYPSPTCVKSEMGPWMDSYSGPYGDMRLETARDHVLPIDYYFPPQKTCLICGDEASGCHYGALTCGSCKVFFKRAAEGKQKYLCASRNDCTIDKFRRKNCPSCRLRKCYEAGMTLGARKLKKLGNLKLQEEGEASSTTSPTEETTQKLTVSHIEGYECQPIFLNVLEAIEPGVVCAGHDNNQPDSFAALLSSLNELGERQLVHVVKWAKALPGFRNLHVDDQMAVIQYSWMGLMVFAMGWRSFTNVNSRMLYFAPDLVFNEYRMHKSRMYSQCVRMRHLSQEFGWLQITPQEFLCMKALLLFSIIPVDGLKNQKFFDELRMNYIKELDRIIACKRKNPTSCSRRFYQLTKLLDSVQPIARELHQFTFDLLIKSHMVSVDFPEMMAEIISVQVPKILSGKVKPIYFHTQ
Description: Cells were exposed to 1 nM R1881 for an additional 2 h, fixed with paraformaldehyde, and mounted in Vectashield antifade mounting medium with DAPI (H-1200, Vector Laboratories). Cellular localization of AR was examined by fluorescence microscopy using an Axiovert 200 microscope equipped with a YFP filter (excitation, 500/20 nm; emission, 535/30 nm; Zeiss, Toronto, Ontario, Canada). Images were taken using a Axiocam MR camera and the AxioVision 4.4 software (Zeiss, Toronto, ON, Canada).

[1] = target: T2, progesterone receptor (PR)-β (Homo sapiens, UniProt P06401); assay: Steroid receptor specificity: PRE-luciferase reporter in LNCaP cells; format: cell-based; conditions: 10 μM compound, 10 nM 4-pregnene-3,20-dione, 48 h
T2 construct: expressed in transfected cells; host or cells: LNCaP
T2 sequence (P06401 1-933): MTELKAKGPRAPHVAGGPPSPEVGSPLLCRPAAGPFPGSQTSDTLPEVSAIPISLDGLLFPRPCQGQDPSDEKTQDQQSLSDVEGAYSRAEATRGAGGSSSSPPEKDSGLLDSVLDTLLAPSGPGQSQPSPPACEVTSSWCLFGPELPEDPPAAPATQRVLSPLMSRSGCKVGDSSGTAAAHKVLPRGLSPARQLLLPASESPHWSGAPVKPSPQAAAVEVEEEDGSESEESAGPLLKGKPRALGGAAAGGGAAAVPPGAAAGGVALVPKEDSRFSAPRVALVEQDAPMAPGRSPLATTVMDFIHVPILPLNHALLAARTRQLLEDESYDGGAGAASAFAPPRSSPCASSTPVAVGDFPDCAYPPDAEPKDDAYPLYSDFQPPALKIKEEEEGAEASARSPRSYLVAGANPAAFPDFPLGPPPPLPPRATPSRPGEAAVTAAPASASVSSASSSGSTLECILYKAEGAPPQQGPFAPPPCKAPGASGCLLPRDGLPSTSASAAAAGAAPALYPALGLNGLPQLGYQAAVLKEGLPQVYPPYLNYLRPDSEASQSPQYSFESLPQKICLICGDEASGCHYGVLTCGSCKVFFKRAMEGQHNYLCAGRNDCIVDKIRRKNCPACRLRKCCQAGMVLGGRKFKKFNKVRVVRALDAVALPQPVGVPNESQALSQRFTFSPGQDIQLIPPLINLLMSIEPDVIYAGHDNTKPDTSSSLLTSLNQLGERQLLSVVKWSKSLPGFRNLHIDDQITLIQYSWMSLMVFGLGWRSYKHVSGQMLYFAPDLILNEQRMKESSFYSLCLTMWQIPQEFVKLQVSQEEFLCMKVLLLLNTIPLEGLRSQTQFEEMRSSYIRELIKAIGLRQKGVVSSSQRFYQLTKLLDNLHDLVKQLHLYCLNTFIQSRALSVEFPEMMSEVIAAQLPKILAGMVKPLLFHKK
Description: LNCaP cells were transfected with the reporter plasmid PSA(6.1kb)-luciferase, PRE-luciferase, or GRE-luciferase and expression vector for progesterone receptor (PR)-β or glucocorticoid receptor (GR)-α in serum-free, phenol red-free medium using Lipofectin (Invitrogen). […] After 48 h of treatment, cells were lysed and analyzed for luciferase activities.
FIGURE 1. […] A, LNCaP cells were transfected with PSA (6.1 kb)-luciferase, PRE-luciferase, or GRE-luciferase reporters and expression vector for PRβ or GRα. […] Error bars represent mean percentage of vehicle activity ±S.E. of at least three independent experiments with triplicate wells. SINT1, 10 μM; […]; ***, p < 0.001. […]. Error bars represents mean ± S.E. of three technical replicates. […] DAPI staining indicates the location of the nucleus. Scale bars, 20 μm.

[2] = Pharmacokinetics in CD-1 mice; format: in vivo; conditions: single intravenous dose 50 mg/kg
Description: Pharmacokinetics assays were performed by NAEJA Pharmaceutical Inc. in a total of 27 CD-1 mice, which received a single intravenous SINT1 dose of 50 mg/kg of body weight. Blood samples were collected during a period of 2.5 min to 8 h postdosing from three mice per time point. Plasma concentrations of SINT1 and pharmacokinetics parameters were determined.

[3] = mice sets 1-3 and mean ± S.D., mean

Question: For `CCC(=O)NC(CC(C)C(Cl)(Cl)Cl)C(=O)N1C(=O)C=C(OC)C1CC(C)C(Cl)Cl` (stereo not drawn) [SINT1, Sintokamide A], which “effect on PC3 cells that do not depend on AR for growth and survival” value (PC3 cells) is on record?
Answer: no effect

Question: What about the “nuclear translocation of AR in the absence of androgen” value (AR-YFP) of the same molecule?
Answer: AR remained cytoplasmic

Question: And the “nuclear translocation of AR in the presence of androgen” value (AR-YFP; 1 nM R1881 2 h)?
Answer: Androgen induced AR translocation to the nucleus regardless of treatments

Question: And the “PR transcriptional activity (PRE-luciferase)” value [1]?
Answer: did not affect

Question: What about the Cmax ([2]; CD-1, mouse, plasma, iv, 50 mg/kg, plasma, mice sets 1-3 and mean ± S.D., read-out: Cmax) of the same molecule?
Answer: 3.99 µg/mL

Question: What about the AUC(0-inf) ([2]; CD-1, mouse, plasma, iv, 50 mg/kg, mice sets 1-3 and mean ± S.D.) of the same molecule?
Answer: 1840 ng·h/mL

Question: What about the clearance ([2]; CD-1, mouse, plasma, iv, 50 mg/kg, mice sets 1-3 and mean ± S.D., read-out: Cl (plasma clearance) (converted)) of the same molecule?
Answer: 366 mL/min/kg

Question: What about the Vd ([2]; CD-1, mouse, plasma, iv, 50 mg/kg, mice sets 1-3 and mean ± S.D., read-out: Vd (volume of distribution)) of the same molecule?
Answer: 43.7 L/kg

Question: And the half-life ([2]; CD-1, mouse, plasma, iv, 50 mg/kg, mice sets 1-3 and mean ± S.D., read-out: t½ (elimination half-life) (converted))?
Answer: 82.8 min

Question: And the Cmax ([2]; CD-1, mouse, plasma, iv, 50 mg/kg, read-out: Cmax in plasma)?
Answer: ~8 µM

Question: What about the Cmax ([2]; plasma, mice sets 1-3 and mean ± S.D.) of the same molecule?
Answer: 4.44 µg/mL and 4.03 µg/mL

Question: What about the Cmax ([2]; plasma, mice sets 1-3 and mean ± S.D., mean) of the same molecule?
Answer: 4.15 ± 0.25 µg/mL

Question: What about the AUCinf ([2]; mice sets 1-3 and mean ± S.D.) of the same molecule?
Answer: 2.37 µg·h/mL and 1.51 µg·h/mL

Question: What about the “Cl (plasma clearance)” value ([2]; mice sets 1-3 and mean ± S.D.) of the same molecule?
Answer: 17.04 L/h/kg and 26.80 L/h/kg

Question: And the “t½ (elimination half-life)” value ([2]; mice sets 1-3 and mean ± S.D.)?
Answer: 1.10 h and 1.01 h

Question: What about the AUCinf [2, 3] of the same molecule?
Answer: 1.90 ± 0.43 µg·h/mL

Question: And the “Cl (plasma clearance)” value [2, 3]?
Answer: 21.93 ± 4.88 L/h/kg

Question: What about the “t½ (elimination half-life)” value [2, 3] of the same molecule?
Answer: 1.16 ± 0.19 h
